Measured values from the kinase profiling compilation of Christmann-Franck et al. (2016).

What was measured:
Assay in all cases: KINOMEscan competition binding
Settings in all cases: compound 10.0 µM
[1] = molecular target: BLK (human) (UniProt P51451)
[2] = molecular target: CAMK2B (human) (UniProt Q13554)
[3] = molecular target: CAMK2D (human) (UniProt Q13557)
[4] = molecular target: CAMK2G (human) (UniProt Q13555)
[5] = molecular target: CAMKK1 (human) (UniProt Q8N5S9)
[6] = molecular target: CDK19 (human) (UniProt Q9BWU1)
[7] = molecular target: CDK2 (human) (UniProt P24941)
[8] = molecular target: CDK9 (human) (UniProt P50750)
[9] = molecular target: CSNK1A1L (human) (UniProt Q8N752)
[10] = molecular target: DCLK2 (human) (UniProt Q8N568)
[11] = molecular target: DDR2 (human) (UniProt Q16832)
[12] = molecular target: FER (human) (UniProt P16591)
[13] = molecular target: FGFR1 (human) (UniProt P11362)
[14] = molecular target: IGF1R (human) (UniProt P08069)
[15] = molecular target: IRAK3 (human) (UniProt Q9Y616)
[16] = molecular target: JAK3 JH1 catalytic (human) (UniProt P52333)
[17] = molecular target: LIMK1 (human) (UniProt P53667)
[18] = molecular target: MAP3K9 (human) (UniProt P80192)
[19] = molecular target: MAPK6 (human) (UniProt Q16659)
[20] = molecular target: MAPK8 (human) (UniProt P45983)
[21] = molecular target: MYLK4 (human) (UniProt Q86YV6)
[22] = molecular target: NEK7 (human) (UniProt Q8TDX7)
[23] = molecular target: PAK4 (human) (UniProt O96013)
[24] = molecular target: PRKCQ (human) (UniProt Q04759)
[25] = tested on: RET (human), P07949 [M918T]
[26] = molecular target: RPS6KA5 KD2 (human) (UniProt O75582)
[27] = molecular target: SRMS (human) (UniProt Q9H3Y6)
[28] = molecular target: SRPK1 (human) (UniProt Q96SB4)
[29] = molecular target: STK16 (human) (UniProt O75716)
[30] = molecular target: TNK2 (human) (UniProt Q07912)
[31] = molecular target: TNNI3K (human) (UniProt Q59H18)
Sequence of TNNI3K (human) (Q59H18 whole entry, looked up): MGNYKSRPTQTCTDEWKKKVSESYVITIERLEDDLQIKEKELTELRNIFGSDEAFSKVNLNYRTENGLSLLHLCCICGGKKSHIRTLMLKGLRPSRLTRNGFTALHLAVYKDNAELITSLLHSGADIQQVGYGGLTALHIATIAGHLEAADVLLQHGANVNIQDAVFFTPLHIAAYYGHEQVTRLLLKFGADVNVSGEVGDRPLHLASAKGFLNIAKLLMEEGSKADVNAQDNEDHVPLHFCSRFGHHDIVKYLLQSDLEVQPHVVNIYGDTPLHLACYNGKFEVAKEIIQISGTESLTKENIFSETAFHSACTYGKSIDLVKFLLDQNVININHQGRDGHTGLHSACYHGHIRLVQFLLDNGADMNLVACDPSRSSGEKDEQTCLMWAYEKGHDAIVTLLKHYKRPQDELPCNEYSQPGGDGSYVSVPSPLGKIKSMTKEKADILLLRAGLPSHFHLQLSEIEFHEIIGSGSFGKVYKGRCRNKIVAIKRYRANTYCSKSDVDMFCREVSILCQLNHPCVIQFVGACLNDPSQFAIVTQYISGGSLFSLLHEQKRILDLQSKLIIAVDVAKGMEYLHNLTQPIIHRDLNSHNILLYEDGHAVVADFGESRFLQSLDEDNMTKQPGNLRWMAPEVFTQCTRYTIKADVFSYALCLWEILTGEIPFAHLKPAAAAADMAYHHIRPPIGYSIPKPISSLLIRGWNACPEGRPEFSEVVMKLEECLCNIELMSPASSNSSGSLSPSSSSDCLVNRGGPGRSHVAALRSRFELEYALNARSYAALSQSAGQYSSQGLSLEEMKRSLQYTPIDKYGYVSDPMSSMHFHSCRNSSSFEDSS

Sequence of CAMK2G (human) (Q13555 whole entry, looked up): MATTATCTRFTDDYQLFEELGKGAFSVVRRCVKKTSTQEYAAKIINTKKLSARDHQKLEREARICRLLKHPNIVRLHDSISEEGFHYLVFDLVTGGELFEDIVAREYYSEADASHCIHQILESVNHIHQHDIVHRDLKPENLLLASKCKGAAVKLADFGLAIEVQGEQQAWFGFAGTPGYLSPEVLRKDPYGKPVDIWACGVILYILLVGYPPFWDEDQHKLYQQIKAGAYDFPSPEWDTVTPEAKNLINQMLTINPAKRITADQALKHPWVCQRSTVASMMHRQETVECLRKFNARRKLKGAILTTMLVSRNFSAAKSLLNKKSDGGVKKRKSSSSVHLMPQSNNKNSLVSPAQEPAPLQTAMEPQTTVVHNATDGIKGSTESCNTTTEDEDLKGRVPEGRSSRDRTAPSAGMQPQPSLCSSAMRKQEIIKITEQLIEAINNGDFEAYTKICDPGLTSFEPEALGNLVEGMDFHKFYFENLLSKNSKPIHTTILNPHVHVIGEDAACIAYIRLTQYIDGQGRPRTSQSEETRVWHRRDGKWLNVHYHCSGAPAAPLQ
Sequence of LIMK1 (human) (P53667 whole entry, looked up): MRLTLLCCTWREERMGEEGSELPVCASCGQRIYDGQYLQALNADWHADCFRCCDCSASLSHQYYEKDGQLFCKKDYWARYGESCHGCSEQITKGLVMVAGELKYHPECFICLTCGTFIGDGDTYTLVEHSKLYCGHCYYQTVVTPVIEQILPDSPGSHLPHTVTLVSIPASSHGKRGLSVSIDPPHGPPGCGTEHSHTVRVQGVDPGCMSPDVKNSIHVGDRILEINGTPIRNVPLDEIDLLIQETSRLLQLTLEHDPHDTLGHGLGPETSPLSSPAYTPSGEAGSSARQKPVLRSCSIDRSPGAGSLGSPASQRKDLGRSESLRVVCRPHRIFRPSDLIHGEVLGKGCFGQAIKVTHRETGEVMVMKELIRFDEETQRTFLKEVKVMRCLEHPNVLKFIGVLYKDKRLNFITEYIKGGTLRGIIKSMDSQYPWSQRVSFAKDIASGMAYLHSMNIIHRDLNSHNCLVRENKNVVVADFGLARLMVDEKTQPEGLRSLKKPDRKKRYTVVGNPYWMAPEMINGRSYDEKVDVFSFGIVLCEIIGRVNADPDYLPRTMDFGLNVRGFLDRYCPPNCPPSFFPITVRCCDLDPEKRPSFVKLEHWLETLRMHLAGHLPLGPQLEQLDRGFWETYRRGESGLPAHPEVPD
Sequence of CAMKK1 (human) (Q8N5S9 whole entry, looked up): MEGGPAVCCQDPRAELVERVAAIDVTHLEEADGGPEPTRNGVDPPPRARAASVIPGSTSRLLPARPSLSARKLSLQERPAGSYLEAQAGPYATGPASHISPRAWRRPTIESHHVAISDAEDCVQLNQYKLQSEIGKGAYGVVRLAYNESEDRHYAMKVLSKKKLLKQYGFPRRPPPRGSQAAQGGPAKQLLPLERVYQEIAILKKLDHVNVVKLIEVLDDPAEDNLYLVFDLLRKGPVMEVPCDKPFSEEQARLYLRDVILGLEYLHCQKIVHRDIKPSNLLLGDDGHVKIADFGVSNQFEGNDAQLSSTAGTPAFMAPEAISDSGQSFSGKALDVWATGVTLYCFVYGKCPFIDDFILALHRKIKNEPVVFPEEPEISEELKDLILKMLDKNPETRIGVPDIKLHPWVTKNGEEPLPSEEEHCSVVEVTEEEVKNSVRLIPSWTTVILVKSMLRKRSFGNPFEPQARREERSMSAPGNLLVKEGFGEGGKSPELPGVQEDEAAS
Sequence of BLK (human) (P51451 whole entry, looked up): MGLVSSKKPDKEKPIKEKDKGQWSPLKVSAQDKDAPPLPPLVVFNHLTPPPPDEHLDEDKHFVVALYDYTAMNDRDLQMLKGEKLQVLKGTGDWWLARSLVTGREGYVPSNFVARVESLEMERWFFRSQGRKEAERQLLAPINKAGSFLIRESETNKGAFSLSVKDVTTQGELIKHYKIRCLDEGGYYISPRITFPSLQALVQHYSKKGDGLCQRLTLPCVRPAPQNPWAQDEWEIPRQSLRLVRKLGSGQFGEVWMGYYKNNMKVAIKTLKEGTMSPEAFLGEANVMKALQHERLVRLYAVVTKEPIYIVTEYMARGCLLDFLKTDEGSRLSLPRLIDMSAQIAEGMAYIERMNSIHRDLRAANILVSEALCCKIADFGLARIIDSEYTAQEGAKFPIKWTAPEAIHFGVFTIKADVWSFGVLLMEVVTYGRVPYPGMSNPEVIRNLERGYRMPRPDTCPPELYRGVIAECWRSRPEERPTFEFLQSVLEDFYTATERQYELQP
Sequence of MAPK8 (human) (P45983 whole entry, looked up): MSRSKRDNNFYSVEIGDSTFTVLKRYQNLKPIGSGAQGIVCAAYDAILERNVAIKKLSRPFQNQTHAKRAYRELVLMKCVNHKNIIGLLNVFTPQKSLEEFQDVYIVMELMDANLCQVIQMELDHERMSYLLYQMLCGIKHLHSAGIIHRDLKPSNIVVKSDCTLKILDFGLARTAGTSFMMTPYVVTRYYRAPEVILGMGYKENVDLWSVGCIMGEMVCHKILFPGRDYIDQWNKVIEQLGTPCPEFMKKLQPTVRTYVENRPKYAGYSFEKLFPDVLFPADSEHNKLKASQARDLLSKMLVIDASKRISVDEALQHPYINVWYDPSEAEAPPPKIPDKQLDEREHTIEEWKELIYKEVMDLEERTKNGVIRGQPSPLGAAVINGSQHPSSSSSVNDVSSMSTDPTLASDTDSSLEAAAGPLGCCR
Sequence of SRMS (human) (Q9H3Y6 whole entry, looked up): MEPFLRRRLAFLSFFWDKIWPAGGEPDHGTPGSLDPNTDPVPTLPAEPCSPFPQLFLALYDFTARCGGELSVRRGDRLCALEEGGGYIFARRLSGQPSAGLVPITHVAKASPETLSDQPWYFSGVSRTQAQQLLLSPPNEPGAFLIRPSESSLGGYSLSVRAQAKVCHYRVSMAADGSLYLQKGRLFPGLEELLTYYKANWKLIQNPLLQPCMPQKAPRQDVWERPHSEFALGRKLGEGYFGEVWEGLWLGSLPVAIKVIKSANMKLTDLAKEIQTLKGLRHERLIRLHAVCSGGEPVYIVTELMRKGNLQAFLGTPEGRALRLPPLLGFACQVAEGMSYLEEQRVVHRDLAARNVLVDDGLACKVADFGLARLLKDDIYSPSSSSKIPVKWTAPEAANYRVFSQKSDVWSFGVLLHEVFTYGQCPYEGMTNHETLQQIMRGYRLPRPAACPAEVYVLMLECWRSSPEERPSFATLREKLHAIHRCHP
Sequence of MYLK4 (human) (Q86YV6 whole entry, looked up): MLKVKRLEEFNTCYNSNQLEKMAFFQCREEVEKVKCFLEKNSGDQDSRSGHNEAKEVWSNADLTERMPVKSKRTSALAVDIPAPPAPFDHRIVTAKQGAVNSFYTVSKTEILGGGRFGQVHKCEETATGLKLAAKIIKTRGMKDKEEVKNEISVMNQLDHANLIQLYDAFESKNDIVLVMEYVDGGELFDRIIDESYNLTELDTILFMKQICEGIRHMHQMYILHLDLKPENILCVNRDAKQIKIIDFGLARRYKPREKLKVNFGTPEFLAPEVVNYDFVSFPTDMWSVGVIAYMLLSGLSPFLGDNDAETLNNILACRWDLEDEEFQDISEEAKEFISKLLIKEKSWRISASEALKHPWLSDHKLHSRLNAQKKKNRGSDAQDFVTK
Sequence of CDK19 (human) (Q9BWU1 whole entry, looked up): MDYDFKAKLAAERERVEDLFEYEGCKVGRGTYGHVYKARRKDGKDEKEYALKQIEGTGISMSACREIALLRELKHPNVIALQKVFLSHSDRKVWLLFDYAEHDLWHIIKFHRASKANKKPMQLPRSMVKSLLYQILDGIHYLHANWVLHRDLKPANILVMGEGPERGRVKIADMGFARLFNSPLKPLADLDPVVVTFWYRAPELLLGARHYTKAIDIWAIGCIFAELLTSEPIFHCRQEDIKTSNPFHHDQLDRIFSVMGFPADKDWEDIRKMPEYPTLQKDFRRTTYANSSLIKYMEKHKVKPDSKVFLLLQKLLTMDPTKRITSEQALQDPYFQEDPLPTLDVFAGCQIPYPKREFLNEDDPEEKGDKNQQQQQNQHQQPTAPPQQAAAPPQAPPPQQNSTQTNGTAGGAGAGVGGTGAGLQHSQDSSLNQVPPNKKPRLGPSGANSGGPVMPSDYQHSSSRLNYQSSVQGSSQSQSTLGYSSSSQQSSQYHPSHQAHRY

kinase still bound, per cent of control [3] [%] | kinase still bound, per cent of control [4] [%] | kinase still bound, per cent of control [5] [%] | kinase still bound, per cent of control [6] [%] | kinase still bound, per cent of control [7] [%] | kinase still bound, per cent of control [8] [%] | kinase still bound, per cent of control [9] [%] | kinase still bound, per cent of control [10] [%] | kinase still bound, per cent of control [11] [%] | kinase still bound, per cent of control [12] [%] | kinase still bound, per cent of control [13] [%] | kinase still bound, per cent of control [14] [%] | kinase still bound, per cent of control [15] [%] | kinase still bound, per cent of control [16] [%] | kinase still bound, per cent of control [17] [%] | kinase still bound, per cent of control [18] [%] | kinase still bound, per cent of control [19] [%] | kinase still bound, per cent of control [20] [%] | kinase still bound, per cent of control [21] [%] | kinase still bound, per cent of control [22] [%] | Compound | also measured
100 | 100 | 100 | 100 | 100 | 100 | 26 | 100 | 100 | 1.1 | 11 | 2.2 | 15 | 1.8 | 100 | 0.85 | 100 | 7.3 | 100 | 100 | CNC(=O)c1ccc(Nc2cc(Nc3ccccc3S(=O)(=O)C(C)C)c3cc[nH]c3n2)nc1 | kinase still bound, per cent of control [1]: 0.55%; kinase still bound, per cent of control [2]: 100%; kinase still bound, per cent of control [23]: 18%; kinase still bound, per cent of control [24]: 24%; kinase still bound, per cent of control [25]: 1.4%; kinase still bound, per cent of control [26]: 100%; kinase still bound, per cent of control [27]: 100%; kinase still bound, per cent of control [28]: 2%; kinase still bound, per cent of control [29]: 2.8%; kinase still bound, per cent of control [30]: 1%; kinase still bound, per cent of control [31]: 100%
100 | 100 | 100 | 100 | 100 | 100 | 100 | 100 | 100 | 100 | 0.4 | 100 | 100 | 100 | 100 | 100 | 100 | 100 | 100 | 100 | CCN(CC)CCCCNc1ncc2cc(-c3cc(OC)cc(OC)c3)c(NC(=O)NC(C)(C)C)nc2n1 | kinase still bound, per cent of control [1]: 100%; kinase still bound, per cent of control [2]: 100%; kinase still bound, per cent of control [23]: 100%; kinase still bound, per cent of control [24]: 100%; kinase still bound, per cent of control [25]: 100%; kinase still bound, per cent of control [26]: 100%; kinase still bound, per cent of control [27]: 100%; kinase still bound, per cent of control [28]: 100%; kinase still bound, per cent of control [29]: 100%; kinase still bound, per cent of control [30]: 100%; kinase still bound, per cent of control [31]: 100%
100 | 100 | 100 | 100 | 100 | 100 | 100 | 100 | 100 | 100 | 2.2 | 16 | 100 | 0.15 | 100 | 12 | 100 | 100 | 100 | 100 | C=CC(=O)Nc1ccc(CN(C(=O)Nc2c(Cl)c(OC)cc(OC)c2Cl)c2cc(Nc3ccc(N4CCN(C)CC4)cc3)ncn2)cc1 | kinase still bound, per cent of control [1]: 0.1%; kinase still bound, per cent of control [2]: 100%; kinase still bound, per cent of control [23]: 100%; kinase still bound, per cent of control [24]: 100%; kinase still bound, per cent of control [25]: 0.4%; kinase still bound, per cent of control [26]: 100%; kinase still bound, per cent of control [27]: 100%; kinase still bound, per cent of control [28]: 100%; kinase still bound, per cent of control [29]: 100%; kinase still bound, per cent of control [30]: 1.7%; kinase still bound, per cent of control [31]: 100%

Compound | kinase still bound, per cent of control [3] [%] | kinase still bound, per cent of control [4] [%] | kinase still bound, per cent of control [5] [%] | kinase still bound, per cent of control [6] [%] | kinase still bound, per cent of control [7] [%] | kinase still bound, per cent of control [8] [%] | kinase still bound, per cent of control [9] [%] | kinase still bound, per cent of control [10] [%] | kinase still bound, per cent of control [11] [%] | kinase still bound, per cent of control [12] [%] | kinase still bound, per cent of control [13] [%] | kinase still bound, per cent of control [14] [%] | kinase still bound, per cent of control [15] [%] | kinase still bound, per cent of control [16] [%] | kinase still bound, per cent of control [17] [%] | kinase still bound, per cent of control [18] [%] | kinase still bound, per cent of control [19] [%] | kinase still bound, per cent of control [20] [%] | kinase still bound, per cent of control [21] [%] | kinase still bound, per cent of control [22] [%] | also measured
Cc1n[nH]c2ccc(-c3cncc(OC[C@@H](N)Cc4c[nH]c5ccccc45)c3)cc12 | 2.5 | 5.4 | 2.4 | 0.5 | 100 | 1.9 | 11 | 100 | 100 | 100 | 100 | 100 | 30 | 32 | 100 | 100 | 100 | 100 | 3 | 100 | kinase still bound, per cent of control [23]: 13%; kinase still bound, per cent of control [24]: 0%; kinase still bound, per cent of control [25]: 100%; kinase still bound, per cent of control [26]: 17%; kinase still bound, per cent of control [27]: 100%; kinase still bound, per cent of control [28]: 17%; kinase still bound, per cent of control [29]: 100%; kinase still bound, per cent of control [30]: 100%; kinase still bound, per cent of control [31]: 100%
